Laboratory results as given in patent US7375124B2, “Use of α-phenylthiocarboxylic and α-phenyloxycarboxylic acids with serum-glucose-lowering and serum-lipid-lowering activity” (Sigma-Tau Industrie Farmaceutiche Riunite S.p.A., priority 2002, dated 2008).

How the values were obtained:
PPARγ = biological target: T1, PPARγ (Mus musculus, UniProt P37238); assay: Transactivation assay mediated by PPARγ in NIH-3T3 cells (CAT reporter); format: cell-based
T1 construct: expressed in transfected cells; host or cells: NIH-3T3 (mouse embryonal fibroblasts)
T1 sequence (P37238 1-475 isoform P37238-2): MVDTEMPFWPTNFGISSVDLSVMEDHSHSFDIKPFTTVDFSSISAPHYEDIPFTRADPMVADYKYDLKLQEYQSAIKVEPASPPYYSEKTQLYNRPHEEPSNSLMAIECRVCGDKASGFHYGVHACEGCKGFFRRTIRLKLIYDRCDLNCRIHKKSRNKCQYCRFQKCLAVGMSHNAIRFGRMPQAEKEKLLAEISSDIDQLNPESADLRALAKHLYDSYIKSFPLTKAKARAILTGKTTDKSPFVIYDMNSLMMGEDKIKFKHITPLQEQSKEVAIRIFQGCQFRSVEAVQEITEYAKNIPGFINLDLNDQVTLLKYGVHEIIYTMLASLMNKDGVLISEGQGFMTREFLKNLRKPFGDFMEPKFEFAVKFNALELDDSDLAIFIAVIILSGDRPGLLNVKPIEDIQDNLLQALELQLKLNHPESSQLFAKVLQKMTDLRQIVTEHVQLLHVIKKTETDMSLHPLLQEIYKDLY
Description: A transactivation assay specific for PPARγ thus requires the simultaneous presence of the following in the preselected cell line: • a) a sufficient amount of PPARγ; • b) a sufficient amount of the 9 cis-retinoic acid receptor (RXR); • c) a chimeric plasmid containing the reporter gene controlled by a PPRE, located upstream of a viral heterologous promoter. In our case the reporter gene is chloramphenicol-acetyl transferase (CAT).
In the transactivation assay used, the preselected cells are transfected with the expression vector pSG5 Stop-mPPARg1 which allows the synthesis of the PPARγ receptor by the transfected cell. Simultaneously, a plasmid reporter (pBLCAT2-PPRE) is transfected which contains a peroxisome proliferator response element (PPRE) isolated by the gene promoter for acyl-CoA oxidase, upstream of the heterologous promoter of viral thymidine kinase (TK) fused with the reporter gene CAT. Since the endogenous cell levels of the RXR receptor are sufficiently high, it is not necessary to transfect an expression vector specific for RXR as well. […] Therefore, any increase in CAT levels will be the result of increased gene transcription dependent upon the dimerisation of PPARγ with RXR and upon the heterodimer bond formed with the peroxisome proliferator response element. Together with the expression vector and the reporter vector the cells are also transfected with the plasmid pCH110 which provides the internal control for the efficiency of transfection and the normalisation of the results
A cell line of mouse embryonal fibroblasts (NIH-3T3) was used [Hogan J. C. et al., Biochem Biophys Res Commun. 287 (2), 484-92 (2001)]. The cells were transfected with the reporter plasmid, the expression plasmid coding for the PPARγ receptor and the control vector pCH110. The cells were exposed to increasing concentrations of the study compounds and CAT activity was evaluated. Untreated cells were used as controls.
Mouse embryonal fibroblasts (NIH-3T3) were cultured according to the usual cell culture techniques, at 37° C. in a 5% v/v carbon dioxide atmosphere using as the growth medium DMEM (Dulbecco's modified Eagle's medium) modified with 3.7 g/l of sodium bicarbonate, 4 mM L-glutamine, 4.5 g/l of glucose, 1 mM sodium pyruvate and 10% v/v of calf serum, in the presence of streptomycin 100 μg/ml and penicillin 100 U/ml final.
The cells were co-transfected using the transfection reagent FuGENE6 (Roche), already described in the previous example. Twenty-four hours prior to transfection the cells were plated at a density of 8.0×10^4 cells/well in 12-well plates and maintained at 37° C. in a 5% v/v CO2 atmosphere. The culture medium, devoid of serum, was replaced 2 hours before transfection, and then the cells were treated with the transfection reagent FuGENE6, as described in the previous example. After 5 hours, the transfection medium was replaced by 1 ml of culture medium complete with serum and antibiotics in the presence or absence of the molecules to be tested at 3 different concentrations (2, 20 and 100 μM). Rosiglitazone, a known ligand of PPARγ, was used as the positive reference compound.
The cell protein extracts were prepared and the CAT activity assay was conducted exactly as described in the previous example.
As an internal control for the normalisation of the CAT activity in relation to the transfection efficiency, β-galactosidase activity coded for by the corresponding gene in the co-transfected plasmid pCH110 was used.
β-galatosidase activity was measured exactly as described in the previous example.
For the normalisation of the CAT assay results in relation to […] activity the formula described in the previous example was used.

C57BL/KsJ db/db mouse = assay: Antidiabetic and serum-lipid-lowering activity in the db/db mouse (Experiments I and II); details: Experiment II; for Glucose: blood
Description: Plasma levels of glucose, insulin, triglycerides, cholesterol, free fatty acids and urea were checked for a well-matched distribution of mice in the treatment groups.
At the start of treatment the body weights of the mice were checked and arrangements were made for monitoring water and feed consumption.
In the course of the experiment, serum glucose levels, oral glucose tolerance test (OGTT) findings, a number of lipid status parameters and weight gain were monitored.

[1] = after 12 days' treatment, postabsorption, 7.5 hours after last treatment, mean ± S.E.

Activation of the gene-reporter CAT as a percentage of the reference compound (rosiglitazone 2 μM = 100%) (PPARγ; 2 μM): 28.6%
Activation of the gene-reporter CAT as a percentage of the reference compound (rosiglitazone 2 μM = 100%) (PPARγ; 20 μM): 61.2%
Activation of the gene-reporter CAT as a percentage of the reference compound (rosiglitazone 2 μM = 100%) (PPARγ; 100 μM): 114.3%
melting point: 105 to 106 °C
Variation % (final b.w.) vs control (C57BL/KsJ db/db mouse; after 12 days' treatment): +5%
Structure (SMILES): CC(C)(Sc1cccc(OCCc2ccc(Cl)cc2)c1)C(=O)O [Example 2, 2-[3-[2-(4-chlorophenyl)ethoxy]phenylthio]-2-methylpropanoic acid]
Variation % (glucose) vs control (C57BL/KsJ db/db mouse; after 9 days' treatment, postabsorption, 8 hours after last treatment): −66%
Variation % (AUC glucose at OGTT) vs control (C57BL/KsJ db/db mouse; after 11 days' treatment, OGTT glucose 3 g/kg): −43%
AUC glucose at OGTT (C57BL/KsJ db/db mouse; after 11 days' treatment, OGTT glucose 3 g/kg, fasting 18 hours, 5 hours after last treatment, mean ± S.E.): 24517 ± 2261 a.u.
Variation % (glucose) vs control (C57BL/KsJ db/db mouse; after 11 days' treatment, fasting 18 hours, 5 hours after last treatment): −48%
Variation % (HDL-cholesterol) vs control (C57BL/KsJ db/db mouse; after 12 days' treatment): +19%
Variation % (triglycerides) vs control (C57BL/KsJ db/db mouse; after 12 days' treatment): −44%
Glucose (plasma) (C57BL/KsJ db/db mouse; after 12 days' treatment, postabsorption (fasting 9 a.m. to 4.30 p.m.), 7.5 hours after last treatment, mean ± S.E.): 263 ± 30 mg/dL
Variation % (plasma glucose) vs control (C57BL/KsJ db/db mouse; after 12 days' treatment, postabsorption, 7.5 hours after last treatment): −54%
HDL-choles. (plasma) (C57BL/KsJ db/db mouse; [1]): 102.5 ± 4.7Δ mg/dl
Triglycerides (plasma) (C57BL/KsJ db/db mouse; [1]): 48.6 ± 2.5 mg/dL
Glucose (C57BL/KsJ db/db mouse; after 9 days' treatment, postabsorption (fasting 9 a.m. to 5 p.m.), 8 hours after last treatment, mean ± S.E.): 155 ± 21 mg/dL
Glucose (C57BL/KsJ db/db mouse; after 11 days' treatment, fasting 18 hours, 5 hours after last treatment, mean ± S.E.): 128 ± 8 mg/dL
Final b.w. (C57BL/KsJ db/db mouse; final body weight after 12 days' treatment, postabsorption condition, mean ± S.E.): 39.4 ± 0.9 g
Variation % (initial b.w.) vs control (C57BL/KsJ db/db mouse; initial body weight): −3%
Initial b.w. (C57BL/KsJ db/db mouse; initial body weight, postabsorption condition, mean ± S.E.): 37.8 ± 0.5 g
